The text below walks through data of ChEMBL document CHEMBL1142848, “Synthesis and antibacterial activity of N-(5-benzylthio-1,3,4-thiadiazol-2-yl) and N-(5-benzylsulfonyl-1,3,4-thiadiazol-2-yl)piperazinyl quinolone derivatives” (2005).

Values after ≈ are worked out from the molar mass of the structure shown.

Assay type in all cases: functional
For assay [1], the system named is Staphylococcus epidermidis. The experiment in a line: Minimum inhibitory concentration against Staphylococcus epidermidis.
In a further assay the test system is Klebsiella pneumoniae. The assay can be described thus: Minimum inhibitory concentration against Klebsiella pneumoniae.
A further assay deals with Pseudomonas aeruginosa. The assay can be described thus: Minimum inhibitory concentration against Pseudomonas aeruginosa.
Another assay deals with Staphylococcus aureus. The experiment in a line: Minimum inhibitory concentration against Staphylococcus aureus.
The subject of another assay is Escherichia coli. The assay can be described thus: Minimum inhibitory concentration against Escherichia coli.
The test system of the next assay is Bacillus subtilis. The experiment in a line: Minimum inhibitory concentration against Bacillus subtilis.

Regarding `O=C(O)c1cn(C2CC2)c2cc(N3CCN(c4nnc(S(=O)(=O)Cc5ccc([N+](=O)[O-])cc5)s4)CC3)c(F)cc2c1=O`, the minimal inhibitory concentration (MIC) was 2 µg/mL (≈ 3.25 µM) in assay [1]; 64 µg/mL (≈ 104 µM) against Klebsiella pneumoniae; > 64 µg/mL against Pseudomonas aeruginosa; 8 µg/mL (≈ 13 µM) with Staphylococcus aureus; > 64 µg/mL in the assay with Escherichia coli; 1 µg/mL (≈ 1.63 µM) in the assay with Bacillus subtilis.
As for `CCn1cc(C(=O)O)c(=O)c2cc(F)c(N3CCN(c4nnc(S(=O)(=O)Cc5ccccc5)s4)CC3)cc21`, the MIC was 16 µg/mL (≈ 28.7 µM) in assay [1]; > 64 µg/mL in the assay on Klebsiella pneumoniae; > 64 µg/mL against Pseudomonas aeruginosa; 64 µg/mL (≈ 115 µM) in the assay on Staphylococcus aureus; > 64 µg/mL against Escherichia coli; 8 µg/mL (≈ 14.3 µM) against Bacillus subtilis.
As for `O=C(O)c1cn(C2CC2)c2cc(N3CCN(c4nnc(SCc5ccc([N+](=O)[O-])cc5)s4)CC3)c(F)cc2c1=O`, the MIC was 0.03 µg/mL (≈ 0.0515 µM) in assay [1]; 2 µg/mL (≈ 3.43 µM) with Klebsiella pneumoniae; 32 µg/mL (≈ 54.9 µM) in the assay with Pseudomonas aeruginosa; 0.5 µg/mL (≈ 0.858 µM) against Staphylococcus aureus; 1 µg/mL (≈ 1.72 µM) in the assay with Escherichia coli; 0.5 µg/mL (≈ 0.858 µM) against Bacillus subtilis.
In the case of `O=C(O)c1cn(C2CC2)c2cc(N3CCN(c4nnc(S(=O)(=O)Cc5cccc([N+](=O)[O-])c5)s4)CC3)c(F)cc2c1=O`, the MIC is 0.05 µg/mL (≈ 0.0813 µM) in assay [1]; 16 µg/mL (≈ 26 µM) with Klebsiella pneumoniae; > 64 µg/mL with Pseudomonas aeruginosa; 1 µg/mL (≈ 1.63 µM) against Staphylococcus aureus; 8 µg/mL (≈ 13 µM) against Escherichia coli; 8 µg/mL (≈ 13 µM) with Bacillus subtilis.
For the compound `O=C(O)c1cn(C2CC2)c2cc(N3CCN(c4nnc(S(=O)(=O)Cc5ccccc5[N+](=O)[O-])s4)CC3)c(F)cc2c1=O`, the MIC in assay [1] was 0.03 µg/mL (≈ 0.0488 µM); against Klebsiella pneumoniae, 4 µg/mL (≈ 6.51 µM); with Pseudomonas aeruginosa, > 32 µg/mL; in the assay on Staphylococcus aureus, 4 µg/mL (≈ 6.51 µM); in the assay with Escherichia coli, 1 µg/mL (≈ 1.63 µM); against Bacillus subtilis, 1 µg/mL (≈ 1.63 µM).
Consider `O=C(O)c1cn(C2CC2)c2cc(N3CCN(c4nnc(SCc5cccc([N+](=O)[O-])c5)s4)CC3)c(F)cc2c1=O`, for which the MIC was determined as 0.06 µg/mL (≈ 0.103 µM) in assay [1]; 2 µg/mL (≈ 3.43 µM) against Klebsiella pneumoniae; 64 µg/mL (≈ 110 µM) in the assay on Pseudomonas aeruginosa; 0.5 µg/mL (≈ 0.858 µM) against Staphylococcus aureus; 2 µg/mL (≈ 3.43 µM) in the assay with Escherichia coli; 4 µg/mL (≈ 6.87 µM) against Bacillus subtilis.
For the compound `CCn1cc(C(=O)O)c(=O)c2cc(F)c(N3CCN(c4nnc(S(=O)(=O)Cc5ccccc5[N+](=O)[O-])s4)CC3)cc21`, the MIC in assay [1] was > 64 µg/mL; in the assay with Klebsiella pneumoniae, 64 µg/mL (≈ 106 µM); against Pseudomonas aeruginosa, > 64 µg/mL; against Staphylococcus aureus, > 64 µg/mL; against Escherichia coli it was 32 µg/mL (≈ 53.1 µM); against Bacillus subtilis, 16 µg/mL (≈ 26.6 µM).
As for `CCn1cc(C(=O)O)c(=O)c2cc(F)c(N3CCN(c4nnc(SCc5ccccc5)s4)CC3)cc21`, the MIC in assay [1] was 2 µg/mL (≈ 3.8 µM); in the assay with Klebsiella pneumoniae it was 16 µg/mL (≈ 30.4 µM); against Pseudomonas aeruginosa it was > 64 µg/mL; against Staphylococcus aureus, 16 µg/mL (≈ 30.4 µM); in the assay with Escherichia coli it was 16 µg/mL (≈ 30.4 µM); in the assay on Bacillus subtilis, 8 µg/mL (≈ 15.2 µM).
In the case of `CCn1cc(C(=O)O)c(=O)c2cc(F)c(N3CCN(c4nnc(SCc5ccc([N+](=O)[O-])cc5)s4)CC3)cc21`, the MIC in assay [1] was 0.5 µg/mL (≈ 0.876 µM); in the assay on Klebsiella pneumoniae, 64 µg/mL (≈ 112 µM); in the assay with Pseudomonas aeruginosa, > 64 µg/mL; in the assay on Staphylococcus aureus, 4 µg/mL (≈ 7.01 µM); with Escherichia coli, 32 µg/mL (≈ 56.1 µM); with Bacillus subtilis it was 2 µg/mL (≈ 3.5 µM).
`O=C(O)c1cn(C2CC2)c2cc(N3CCN(c4nnc(SCc5ccccc5)s4)CC3)c(F)cc2c1=O`: the MIC in assay [1] is 1 µg/mL (≈ 1.86 µM); in the assay with Klebsiella pneumoniae it was 32 µg/mL (≈ 59.5 µM); in the assay on Pseudomonas aeruginosa it was > 64 µg/mL; in the assay with Staphylococcus aureus, 2 µg/mL (≈ 3.72 µM); against Escherichia coli it was 16 µg/mL (≈ 29.8 µM); with Bacillus subtilis, 4 µg/mL (≈ 7.44 µM).
With `O=C(O)c1cn(C2CC2)c2cc(N3CCN(c4nnc(SCc5ccccc5[N+](=O)[O-])s4)CC3)c(F)cc2c1=O`, the MIC in assay [1] was 0.06 µg/mL (≈ 0.103 µM); in the assay on Klebsiella pneumoniae it was 16 µg/mL (≈ 27.5 µM); against Pseudomonas aeruginosa, 64 µg/mL (≈ 110 µM); in the assay on Staphylococcus aureus, 2 µg/mL (≈ 3.43 µM); against Escherichia coli, 2 µg/mL (≈ 3.43 µM); in the assay with Bacillus subtilis, 4 µg/mL (≈ 6.87 µM).
As to `CCn1cc(C(=O)O)c(=O)c2cc(F)c(N3CCN(c4nnc(S(=O)(=O)Cc5ccc([N+](=O)[O-])cc5)s4)CC3)cc21`, the MIC was 8 µg/mL (≈ 13.3 µM) in assay [1]; > 64 µg/mL in the assay with Klebsiella pneumoniae; > 64 µg/mL against Pseudomonas aeruginosa; 64 µg/mL (≈ 106 µM) with Staphylococcus aureus; > 64 µg/mL in the assay with Escherichia coli; 32 µg/mL (≈ 53.1 µM) against Bacillus subtilis.
Take `O=C(O)c1cn(C2CC2)c2cc(N3CCN(c4nnc(S(=O)(=O)Cc5ccccc5)s4)CC3)c(F)cc2c1=O`: the MIC in assay [1] was 4 µg/mL (≈ 7.02 µM); in the assay on Klebsiella pneumoniae it was > 64 µg/mL; in the assay on Pseudomonas aeruginosa it was > 64 µg/mL; in the assay with Staphylococcus aureus it was 16 µg/mL (≈ 28.1 µM); against Escherichia coli, > 64 µg/mL; in the assay with Bacillus subtilis, 4 µg/mL (≈ 7.02 µM).
Consider `CCn1cc(C(=O)O)c(=O)c2cc(F)c(N3CCN(c4nnc(S(=O)(=O)Cc5cccc([N+](=O)[O-])c5)s4)CC3)cc21`, for which the MIC in assay [1] was 64 µg/mL (≈ 106 µM); against Klebsiella pneumoniae, > 64 µg/mL; against Pseudomonas aeruginosa it was > 64 µg/mL; against Staphylococcus aureus, > 64 µg/mL; against Escherichia coli it was > 64 µg/mL; in the assay with Bacillus subtilis, 64 µg/mL (≈ 106 µM).
Take `CCn1cc(C(=O)O)c(=O)c2cc(F)c(N3CCN(c4nnc(SCc5ccccc5[N+](=O)[O-])s4)CC3)cc21`: the MIC in assay [1] is 0.5 µg/mL (≈ 0.876 µM); in the assay on Klebsiella pneumoniae, 32 µg/mL (≈ 56.1 µM); in the assay on Pseudomonas aeruginosa, > 64 µg/mL; with Staphylococcus aureus it was 4 µg/mL (≈ 7.01 µM); with Escherichia coli it was 16 µg/mL (≈ 28 µM); in the assay on Bacillus subtilis it was 8 µg/mL (≈ 14 µM).
Consider `CCn1cc(C(=O)O)c(=O)c2cc(F)c(N3CCN(c4nnc(SCc5cccc([N+](=O)[O-])c5)s4)CC3)cc21`, for which the minimal inhibitory concentration (MIC) was 0.25 µg/mL (≈ 0.438 µM) in assay [1]; 16 µg/mL (≈ 28 µM) against Klebsiella pneumoniae; > 64 µg/mL in the assay on Pseudomonas aeruginosa; 2 µg/mL (≈ 3.5 µM) against Staphylococcus aureus; 16 µg/mL (≈ 28 µM) against Escherichia coli; 8 µg/mL (≈ 14 µM) in the assay on Bacillus subtilis.
Turning to `O=C(O)c1cn(C2CC2)c2cc(N3CCNCC3)c(F)cc2c1=O` [CIPROFLOXACIN], the MIC in assay [1] stood at 0.25 µg/mL (≈ 0.754 µM); with Klebsiella pneumoniae, 0.06 µg/mL (≈ 0.181 µM); in the assay with Staphylococcus aureus it was 0.5 µg/mL (≈ 1.51 µM); in the assay with Bacillus subtilis, 0.015 µg/mL (≈ 0.0453 µM).
As for `CCn1cc(C(=O)O)c(=O)c2cc(F)c(N3CCNCC3)cc21` [NORFLOXACIN], the MIC in assay [1] was 0.5 µg/mL (≈ 1.57 µM); in the assay on Klebsiella pneumoniae, 0.25 µg/mL (≈ 0.783 µM); against Pseudomonas aeruginosa, 2 µg/mL (≈ 6.26 µM); against Staphylococcus aureus, 1 µg/mL (≈ 3.13 µM); against Escherichia coli, 0.25 µg/mL (≈ 0.783 µM); in the assay with Bacillus subtilis it was 0.06 µg/mL (≈ 0.188 µM).
